By Ki is commonly meant a measure of affinity in units of concentration, obtained from inhibition or displacement.

SMILES strings stand for the structures. *1 amine or outer side, *2 acyl side, *3 side chain or, on linkers, in order; H or OH if unused. Where a SMILES comes first, the peptide text is derived from it. Bridges are numbered along the chain shown (N, C = ends). [ ]: non-standard residue; d: D form. Heptanedioyl = O=C(CCCCCC(=O)[*:2])[*:1]; Suberoyl = O=C(CCCCCCC(=O)[*:2])[*:1]; Glutaryl = O=C(CCCC(=O)[*:2])[*:1]; X1 = CCCC(N[*:1])C(=O)C(=O)[*:2]; Chg = N[C@H](C(=O)O)C1CCCCC1; Phg = N[C@H](C(=O)O)c1ccccc1; Suc = O=C(CCC(=O)[*:2])[*:1]

The target of the experiment is Recombinant heterodimeric HCV NS3/NS4A protease (strain 1a) (Hepatitis C virus genotype 1a, UniProt P27958). In words: biochemical. Details: species or system HCV (strain 1a).
Sequence of Recombinant heterodimeric HCV NS3/NS4A protease (strain 1a) (P27958 1027-1657 limits assumed): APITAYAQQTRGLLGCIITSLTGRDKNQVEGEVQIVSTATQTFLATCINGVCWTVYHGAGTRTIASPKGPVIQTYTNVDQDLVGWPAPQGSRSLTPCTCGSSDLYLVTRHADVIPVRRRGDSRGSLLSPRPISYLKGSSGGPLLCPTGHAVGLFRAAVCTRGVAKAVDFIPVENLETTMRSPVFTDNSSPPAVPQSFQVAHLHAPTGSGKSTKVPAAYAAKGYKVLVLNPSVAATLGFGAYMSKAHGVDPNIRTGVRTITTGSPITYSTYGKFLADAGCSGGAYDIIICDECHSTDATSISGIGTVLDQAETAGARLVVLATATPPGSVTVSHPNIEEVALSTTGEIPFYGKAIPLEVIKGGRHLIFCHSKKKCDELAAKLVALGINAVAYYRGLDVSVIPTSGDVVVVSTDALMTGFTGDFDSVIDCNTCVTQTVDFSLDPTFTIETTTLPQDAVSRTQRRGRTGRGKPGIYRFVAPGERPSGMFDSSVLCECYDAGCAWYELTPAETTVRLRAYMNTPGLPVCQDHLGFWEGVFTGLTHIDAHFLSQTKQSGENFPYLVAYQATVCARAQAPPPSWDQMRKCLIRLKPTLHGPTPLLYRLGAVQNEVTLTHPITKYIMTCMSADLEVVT
Sequence of Recombinant heterodimeric HCV NS3/NS4A protease (strain 1a) (P27958 1658-1711 partner limits assumed): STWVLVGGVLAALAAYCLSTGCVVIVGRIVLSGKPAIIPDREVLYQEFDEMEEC

Take `CCCC(NC(=O)C1Cc2cccc(c2)OCCCCCCOC(=O)NC(C2CCCCC2)C(=O)N1)C(=O)C(=O)NCC(=O)N[C@H](C(=O)N(C)C)c1ccccc1` (stereo partly drawn) [Example 39]: the inhibition constant Ki was in the range of 0.001 to 1 µM. Then `CCCC(NC(=O)C1Cc2cccc(c2)Oc2ccc(cc2)CCC(=O)NC(C2CCCCC2)C(=O)N1)C(=O)C(=O)NCC(=O)OC(C)(C)C` (stereo not drawn) [Example 3], with 1.1 to 100 µM; and `CCCC(NC(=O)C1Cc2cccc(c2)Oc2ccc(cc2)CC(NC(C)=O)C(=O)NC(C2CCCCC2)C(=O)N1)C(=O)C(=O)NCC(=O)OC(C)(C)C` (stereo not drawn) [Example 31], with 1.1 to 100 µM.

`CCCC(NC(=O)[C@@H]1Cc2cccc(c2)OCCCCCCC(=O)N[C@@H](C2CCCCC2)C(=O)N1)C(=O)C(=O)NCC(=O)N[C@H](C(=O)O)c1ccccc1` (stereo partly drawn) [Example 12]: the inhibition constant (Ki) lay in the range of 0.001 to 1 µM. Then `CCCC(NC(=O)[C@@H]1CCCCNC(=O)CCCC(=O)NCC(=O)N[C@@H](C2CCCCC2)C(=O)N1)C(=O)C(=O)NCC(=O)N[C@H](C(N)=O)c1ccccc1` (stereo partly drawn) [Example 50] (G[Chg]K[X1]G[Phg]-NH2; linker N-3 via Glutaryl), with 1.1 to 100 µM; and `CCCC(NC(=O)C1Cc2cccc(c2)Oc2ccc(cc2)CCC(=O)NC(C2CCCCC2)C(=O)O1)C(=O)C(=O)NCC(=O)NC(C(=O)OC(C)(C)C)c1ccccc1` (stereo not drawn) [Example 33], with 1.1 to 100 µM. Then `CCCC(NC(=O)C1Cc2cn(cn2)CCCCCCCC(=O)NC(C2CCCCC2)C(=O)N1)C(=O)C(=O)NCC(=O)NC(C(=O)OC(C)(C)C)c1ccccc1` (stereo not drawn) [Example 23], with 1.1 to 100 µM. Regarding `CCCC(NC(=O)[C@@H]1CCCCNC(=O)CCC(=O)N[C@@H](C2CCCCC2)C(=O)N1)C(=O)C(=O)NCC(=O)N[C@H](C(N)=O)c1ccccc1` (stereo partly drawn) [Example 51] ([Chg]K[X1]G[Phg]-NH2; linker N-2 via Suc), the Ki lay within 1.1 to 100 µM. Then `CCCC(NC(=O)C1Cc2cccc(c2)Oc2ccc(cc2)CCC(=O)NCC(=O)N1)C(=O)C(=O)NCC(=O)NC(C(=O)O)c1ccccc1` (stereo not drawn) [Example 10], with 1.1 to 100 µM; and `CCCC(NC(=O)[C@@H]1Cc2cccc(c2)Oc2ccc(cc2)CC(NC(C)=O)C(=O)N[C@@H](C2CCCCC2)C(=O)N1)C(=O)C(=O)NCC(=O)N[C@H](C(=O)O)c1ccccc1` (stereo partly drawn) [Example 30], with 0.001 to 1 µM; and `CCCC(NC(=O)[C@@H]1CCCCNC(=O)CCCCCC(=O)N[C@@H](C2CCCCC2)C(=O)N1)C(=O)C(=O)NCC(=O)N[C@H](C(N)=O)c1ccccc1` (stereo partly drawn) [Example 53] ([Chg]K[X1]G[Phg]-NH2; linker N-2 via Heptanedioyl), with 0.001 to 1 µM.

Regarding `CCCC(NC(=O)[C@@H]1Cc2cccc(c2)OCCCCCCC(=O)N[C@@H](C2CCCCC2)C(=O)N1)C(=O)C(=O)NCC(=O)N[C@H](C(=O)OC(C)(C)C)c1ccccc1` (stereo partly drawn) [Example 11], the Ki lay within 1.1 to 100 µM. Then `CCCC(NC(=O)[C@@H]1Cc2cccc(c2)OCCCCCC(=O)N[C@@H](C2CCCCC2)C(=O)N1)C(=O)C(=O)NCC(=O)N[C@H](C(=O)OC(C)(C)C)c1ccccc1` (stereo partly drawn) [Example 13], with 1.1 to 100 µM; and `CCCC(NC(=O)C1Cc2cccc(c2)Oc2ccc(cc2)CC(NC(=O)OC(C)(C)C)C(=O)NC(C2CCCCC2)C(=O)N1)C(=O)C(=O)NCC(=O)O` (stereo not drawn) [Example 28], with 1.1 to 100 µM; and `CCCC(NC(=O)[C@@H]1CCCCNC(=O)CCCCCCC(=O)N[C@@H](C2CCCCC2)C(=O)N1)C(=O)C(=O)NCC(=O)N[C@H](C(N)=O)c1ccccc1` (stereo partly drawn) [Example 41] ([Chg]K[X1]G[Phg]-NH2; linker N-2 via Suberoyl), with 0.001 to 1 µM.

Turning to `CCCC(NC(=O)[C@@H]1CCCCNC(=O)Cc2cccc(c2)CC(=O)N[C@@H](C2CCCCC2)C(=O)N1)C(=O)C(=O)NCC(=O)N[C@H](C(N)=O)c1ccccc1` (stereo partly drawn) [Example 43], the Ki lay in the range of 0.001 to 1 µM.

`CCCC(NC(=O)C1Cc2cccc(c2)Oc2ccc(cc2)CCCC(=O)NC(C2CCCCC2)C(=O)N1)C(=O)C(=O)NCC(=O)NC(C(=O)O)c1ccccc1` (stereo not drawn) [Example 6]: the Ki was 0.001 to 1 µM.

Consider `CCCC(NC(=O)[C@@H]1Cc2cccc(c2)C=CCCCCCC(=O)N[C@@H](C2CCCCC2)C(=O)N1)C(=O)C(=O)NCC(=O)N[C@H](C(=O)OC(C)(C)C)c1ccccc1` (stereo partly drawn) [Example 15], for which the Ki lay in the range of 1.1 to 100 µM.

The values are drawn from patent publication US6914122B2 (priority 2000, dated 2005).
